Measurements as given in US8993721B2, “Peptides for targeting apoptotic cells and uses thereof” (Kyungpook National University Industry-Academic Cooperation …, priority 2008, dated 2015).
Entries after “also recorded” stand apart in the source; their conditions may differ.

Experiments:
[1] = test system: apoptotic cells in A549 tumor tissue xenotransplanted under the skin of nude mouse; assay: Histological analysis of tumor targeting (Example 2); format: in vivo; conditions: fluorescein-labeled peptide, tail vein, 50 μM final, 2 hours circulation; cryosections
Procedure: All animal experiments were performed in accordance with the guideline of the Institutional Animal Care and Use Committee. For tumor xenotransplantation, human lung cancer cells (A549, 1×10^7 cells) suspended in RMPI-1640 medium was subcutaneously injected at the right upper or lower limb of a 6-week-old male BALB/c nude mouse (Hyochang Science). Then, 3 weeks were given for the tumor to grow to a size of 0.5 to 1 cm. The A549 cell line used in the experiment was cultured in RMPI-1640 medium containing 10% fetal bovine serum (FBS) in which antibiotics (penicillin and streptomycin) were included. Subculturing was performed every 3 or 4 days.
The peptides used in the present invention were fluorescein-attached form at the N-terminal. They were synthesized according to the standard Fmoc technique and then isolated through HPLC. The peptide synthesis was performed by an expertise company (Peptron).
The peptide of the present invention (ApoPep-1) or a control peptide (amino acid sequence: NSSSVDK), labeled with fluorescein, was injected into the tail vein of a mouse under isoflurane anesthesia, to a final concentration of 50 μM, and 2 hours was given for circulation.
For histological analysis, the mouse was anesthetized and the abdomen was cut open. After sequentially perfusing phosphate-buffered saline (PBS) and 4% paraformaldehyde through the heart, tumor tissues and organs were removed. Each tissue was cryosected and the peptide of the present invention was observed under a fluorescence microscope (Zeiss). Apoptosis in the tumor tissue was confirmed by TUNEL ([…] terminal deoxynucleotidyl transferase-mediated dUTP nick-end labeling) assay according to the instructions of the manufacturer (Chemicon). Fibrinogen staining was performed by immunohistochemistry using anti-fibrinogen antibody (Abcam) and secondary antibody labeled with Alexa 568, a red fluorescent reagent.

[2] = test system: etoposide-treated apoptotic A549 cells; assay: FACS analysis of binding to apoptotic cells (Example 3-3); format: cell-based, human
Procedure: As another way of confirming the binding of the peptide of the present invention to apoptotic cells, apoptotic cells were treated with the peptide of the present invention, labeled with fluorescein, and the binding was confirmed through FACS analysis. […] The apoptotic cells or normal cells were reacted with ApoPep-1 (5 μM), ApoPep-2 (10 μM) or a control peptide at the same concentrations, labeled with fluorescein, at 4° C. for 1 hour. Further, the cells were reacted with fluorescein-labeled annexin V at room temperature for 15 minutes. After staining the cells with propodium iodide (PI) simultaneously, followed by washing with PBS, FACS analysis was performed using a FACS instrument (Becton Dickinson).

[3] = test system: A549 tumor xenotransplanted in nude mice; assay: In vivo fluorescence imaging of targeting of apoptotic cells in tumor (Example 4-1); set-up: species or system mouse; conditions: +Dox (10 mg/kg, 3 times); fluorescein-labeled peptide 50 μM
Procedure: Nude mice in which tumor was xenotransplanted using A549 cells were prepared as in Example <2-1>. The mice were grouped into a doxorubicin (Sigma) treated group (+Dox) and untreated group (−Dox). The treated group was treated with doxorubicin (10 mg/kg) 3 times, with an interval of 48 hours, a week prior to injection of the peptide. At the tail vein of each mouse, the peptide of the present invention or a control peptide, labeled with fluorescein, was injected at a final concentration of 50 μM, under isoflurane anesthesia. Following the injection, in vivo fluorescence images were obtained every hour, from 1 hour to 6 hours after the injection, using an Optix exPlore instrument (GE Healthcare). The images were standardized using the software provided with the instrument.
Further, when the tumor grew considerably (1 cm or larger in diameter), the peptide of the present invention was injected at the same concentration as above, without doxorubicin treatment, and in vivo fluorescence images were obtained at every given time using an IVIS fluorescence imaging system (Chemipro).

[4] = test system: brain of stroke rat (middle cerebral artery occlusion/reperfusion); assay: Molecular imaging of stroke (Example 6); format: in vivo; conditions: Cy7.5-labeled peptide 50 μM i.v.; one and three hours
Procedure: A stroke model was established by occluding the left middle cerebral artery of a rat for 2 hours, followed by reperfusion. Two hours after the reperfusion, the peptide having an amino sequence represented by SEQ ID NO: 1 (ApoPep-1) and a control peptide, labeled with Cy7.5 NIR fluorescence, was intravenously injected at a final concentration of 50 μM to the stroke rat and a normal rat through the tail vein, under isoflurane anesthesia. One and three hours after the intravenous injection, NIR images of the head portion were obtained. Further, NIR fluorescence images of the brains of the rats of the 3 hour group were obtained.

[5] = test system: etoposide-treated apoptotic A549 cells; assay: FACS analysis of binding to apoptotic cells (Example 9-3); format: cell-based, human
Procedure: As another way of confirming the binding of the polypeptide of the present invention (ApoPep-2) to apoptotic cells, apoptotic cells were treated with the peptide, labeled with fluorescein, and the binding was confirmed through FACS analysis. First, apoptosis was induced by treating A549 cells with 50 μM etoposide for 20 hours. The apoptotic cells or normal cells were reacted with ApoPep-2 (10 μM) or a control peptide at the same concentration, labeled with fluorescein, at 4° C. or 37° C. for 1 hour. Further, the cells were reacted with fluorescein-labeled annexin V at room temperature for 15 minutes. After washing cells with PBS, FACS analysis was performed using a FACS instrument (Becton Dickinson).

[6] = test system: A549 tumor xenotransplanted in nude mice; assay: In vivo fluorescence imaging of targeting of apoptotic cells in tumor (Example 10); set-up: species or system mouse
Procedure: Nude mice in which tumor was xenotransplanted using A549 cells were prepared as in Example <8-1>. The mice were grouped into a doxorubicin (Sigma) treated group (Dox+) and untreated group (Dox−). The treated group was treated with doxorubicin (5 mg/kg) one time, 12 hours prior to injection of the peptide. At the tail vein of each mouse, the polypeptide of the present invention or a control peptide, labeled with fluorescein or Cy7.5 near-infrared fluorescent dye, was injected at a final concentration of 50 μM, under isoflurane anesthesia. Following the injection, in vivo fluorescence images were obtained 0.5 hours and every hour, from 1 hour to 4 hours, after the injection, using an Optix exPlore instrument (ART). The images were standardized using the software provided with the instrument.

[7] = test system: etoposide-treated apoptotic cells (A549, H460, HeLa, L132, RAW); assay: Microscopic observation of binding of the peptide to apoptotic cells (Example 3-1); format: cell-based; conditions: 10 μM fluorescein-labeled peptide 4° C. 1 hour
Procedure: Cells were cultured in chamber slide (Nalgene Nunc) and treated with 50 μM etoposide (Sigma) for a given period of time (A549 and HeLa cells: for 15 hours, H460 cells: 24 hours, L132 cells: 3 hours, RAW cells: 6 hours) to induce apoptosis. The cells were cultured in RMPI-1640 medium (A549 and H460 cells) or DMEM (HeLa, L132 and RAW cells) containing antibiotics (penicillin and streptomycin) and 10% FBS. All the cells were subcultured every 3 or 4 days. The apoptosis-induced apoptotic cells were washed with PBS and blocked with 1% BSA at 37° C. for 30 minutes. Then, the cells were reacted with 10 μM of the peptide labeled with fluorescein, at 4° C. for 1 hour. After washing, the cells were reacted with an annexin V reaction buffer containing Alexa594-labeled annexin V (Molecular Probes), at room temperature for 15 minutes. The cells were washed with PBS and then fixed with 4% paraformaldehyde for 5 minutes. Thereafter, after counterstaining using the nuclear stain 4′,6-diamidino-2-phenylindole (DAPI), followed by treatment with a mounting solution (Molecular Probes), images of the cells were obtained under a fluorescence microscope (Zeiss).

apoptotic A549 cells [8] = assay: Competitive inhibition of binding to apoptotic cells by annexin V treatment (Example 3-2); format: cell-based, human; conditions: pre-treatment at 0, 200 and 1000 μM; high concentration
Procedure: In order to further investigate the binding properties of the peptide of the present invention (ApoPep-1) to apoptotic cells, competitive inhibition by annexin V was measured. To this end, first, apoptotic A549 cells were pre-treated with annexin V, not labeled with fluorescence, at concentrations of 0, 200 and […]. Then, after reacting the cells with fluorescence-labeled annexin V under the same condition as described in Example <3-1>, the binding of the cells was observed under a fluorescence microscope.
(§1) Further, apoptotic A549 cells were pre-treated with annexin V, not labeled with fluorescence, at a concentration of 1000 μM. Then, after reacting the cells with fluorescence-labeled peptide under the same condition as described in Example <3-1>, the binding of the cells was observed under a fluorescence microscope.

[9] = test system: etoposide-treated apoptotic A549 cells; assay: Microscopic observation of binding of the peptide to apoptotic cells, A549 (Example 9-1); format: cell-based, human; conditions: Alexa594-annexin V
Procedure: (§2) Cells were cultured in chamber slide (Nunc) and treated with 50 μM etoposide (Sigma) for 16 hours (A549 cells) or 50 ng/ml trail (R&D Systems) for 16 hours (MDA-MB231 cells) to induce apoptosis. The cells were cultured in RMPI-1640 medium (A549 cells) or DMEM-High (MDA-MB231 cells) containing antibiotics (penicillin and streptomycin) and 10% FBS. All the cells were sub-cultured every 3 or 4 days. The apoptosis-induced apoptotic cells were washed with PBS and blocked with 1% BSA at 37° C. for 30 minutes. Then, the cells were reacted with 10 μM of the peptide labeled with fluorescein, at 4° C. for 1 hour. After washing, the cells were reacted with an annexin V reaction buffer containing Alexa594-labeled annexin V (Invitrogen) at room temperature for 15 minutes. The cells were washed with PBS and then fixed with 4% paraformaldehyde for 5 minutes. After treatment with a mounting solution containing the DAPI nuclear stain, images of the cells were obtained under a fluorescence microscope.

[10] = test system: trail-treated apoptotic MDA-MB231 cells; assay: Microscopic observation of binding of the peptide to apoptotic cells, MDA-MB231 (Example 9-1); format: cell-based; conditions: Alexa594-annexin V
Procedure: as §2

apoptotic A549 cells [11] = assay: Competitive inhibition of binding to apoptotic cells by annexin V treatment (Example 9-2); format: cell-based, human; conditions: pre-treatment at 0, 500 and 1000 μM; high concentration
Procedure: In order to further investigate the binding properties of the polypeptide of the present invention (ApoPep-2) to apoptotic cells, competitive inhibition by annexin V was measured. To this end, first, apoptotic A549 cells were pre-treated with annexin V, not labeled with fluorescence, at concentrations of 0, 500 and 1000 μM. Then, after reacting the cells with fluorescence-labeled annexin V under the same condition as described in Example <9-1>, the binding of the cells was observed under a fluorescence microscope.
as §1, with “<9-1>,” for “<3-1>,”

[12] = test system: H460 tumor xenotransplanted in nude mice; assay: Radionuclide (micro PET) imaging of targeting of apoptotic cells in tumor (Example 4-2); format: in vivo, mouse; conditions: 1 hour after injection
Procedure: Nude mice in which tumor was xenotransplanted using H460 cells were prepared as in Example <2-1>. The mice were grouped into a doxorubicin (Sigma) treated group and untreated group. The treated group was treated with doxorubicin (10 mg/kg) 3 times, with an interval of 48 hours, a week prior to injection of the peptide. The peptide of the present invention (ApoPep-1), labeled with the radioactive isotope ^124I, was injected through the tail vein of each mouse under isoflurane anesthesia (treated group: 91 μCi; untreated group: 93 μCi). Further, ^18F-labeled FDG, which is frequently used for PET, was injected to the doxorubicin treated group and untreated group, at 300 μCi and 304 μCi, respectively. Radionuclide images were obtained using a micro PET instrument (Concorde MicroSystems) 5 hours after the injection of [^124I]ApoPep-1 and 1 hour after the injection of [^18F]FDG.

[13] = etoposide 15 hours, fluorescein-annexin V room temperature 15 minutes, PI

NSSSVDK [control peptide, reference compound]
peptide fluorescence observed in the tumor tissue [1]: hardly observed | binding to apoptotic cells (FACS) ([2]; etoposide-treated A549 cells, 4° C. 1 hour): almost nonexistent | fluorescence signal from the tumor, doxorubicin treated group [3]: weakly detected or almost nonexistent | NIR fluorescence at the head portion of the stroke rat [4]: almost nonexistent | binding to apoptotic cells (FACS) ([5]; etoposide-treated A549, 10 μM, 4° C. or 37° C.): almost nonexistent or minimal | ex vivo fluorescence signal from the kidney ([6]; 4 hours after peptide injection, all the groups, renal clearance): strong | fluorescence signal from the tumor, doxorubicin treated group ([6]; Dox+, Cy7.5-labeled peptide 50 μM): targeting was not observed; also recorded: weakly detected

annexin V: 36 kDa protein that binds to phosphatidylserine; used to detect apoptotic cells [reference compound]
labeling of normal cells not treated with etoposide ([7]; Alexa594-annexin V): no labeling was observed | labeling of etoposide-treated apoptotic cells (fluorescence microscopy) ([7]; 50 μM etoposide, Alexa594-annexin V room temperature 15 minutes): labeling was observed | fluorescence of labeled annexin V after pre-treatment with unlabeled annexin V (apoptotic A549 cells [8]): decreased significantly | percentage of the cells stained by both annexin V and PI (fraction Q2, later stage of apoptosis) [2, 13]: 9.4% | percentage of the cells stained only by annexin V (fraction Q4, early stage of apoptosis) [2, 13]: 64.3% | labeling of A549 cells not treated with etoposide ([9]; 10 μM peptide 4° C. 1 hour): no labeling was observed | labeling of etoposide-treated apoptotic A549 cells ([9]; 50 μM etoposide 16 hours, 10 μM fluorescein-labeled peptide 4° C. 1 hour): labeling was observed | labeling of trail-treated apoptotic MDA-MB231 cells ([10]; 50 ng/ml trail 16 hours, 10 μM fluorescein-labeled peptide 4° C. 1 hour): labeling was observed | labeling of MDA-MB231 cells not treated with trail ([10]; 10 μM peptide 4° C. 1 hour): no labeling was observed | fluorescence of labeled annexin V after pre-treatment with unlabeled annexin V (apoptotic A549 cells [11]): decreased significantly | percentage of the cells stained by annexin V ([5]; etoposide 20 hours, fluorescein-annexin V room temperature 15 minutes): 61%

fluorodeoxyglucose [[^18F]FDG]
PET signal at the tumor site, doxorubicin treated group compared with untreated group [12]: weaker signal
